The source of these data is patent US6177438A, “Morphinan derivatives and pharmaceutical use thereof” (priority 1993, dated 2001).

Counter-ions that a name gives are not always drawn. Like-named read-outs stand apart in the source and are kept apart here.

Experiment [1] relates to extracted mouse vas deferens preparation. The experiment in a line: Opioid activity test using an extracted mouse vas deferens preparation (suppression of electrically induced contractions). Details: species or system male ddy mouse. The note with it: electrical stimulus 0.1 Hz, 37° C. The method in brief:
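Male ddY mouse vas deferens in Krebs-Henseleit at 37° C, 5% CO2/95% O2, field-stimulated at 0.1 Hz, 5.0 ms; isometric contractions recorded. After adding naloxone, NTI or norBNI, test compound was added cumulatively after ~20 min; Ke derived from the difference in agonist efficacies.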

The target in experiment [2] is T1, δ receptor (Mus musculus, UniProt P32300).
T1 construct: The vas deferens extracted from the animal was suspended in a Magnus tube; from tissue; host or cells: mouse (male ddy) vas deferens
Details: species or system male ddy mouse. The note with it: mouse vas deferens, δ, NTI added.

For experiment [3], the system named is acetic acid-induced writhing in ddy mice. The experiment in a line: animal or person. The experiment is classed as in vivo, 5 week old ddy mice. The note with it: for ED50: s.c. 15 minutes before acetic acid; for analgesic activity: s.c., in words. The protocol:
5 week old ddy mice were used in this test. After intraperitoneal administration of 0.1 ml of 0.6% aqueous acetic acid per 10 g of body weight, the number of writhing reactions that occurred in 10 minutes starting 10 minutes after administration was evaluated for the indicator. The test drug was administered subcutaneously into the backs of the animals 15 minutes before administration of acetic acid.

Experiment [4] can be described thus: Diuretic action (urine output for 5 hours after physiological saline loading in rats). The experiment is classed as in vivo, male Wistar rats. To be noted: for ED (200% urine output) / ED (500% urine output): Rattus norvegicus, sc, 5 hours after saline 20 ml/kg p.o.; for ED (200% urine output): dose giving urine output of 200 (non-dosed group = 100); for ED (500% urine output): dose giving urine output of 500 (non-dosed group = 100). The method in brief: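 Doses reported as ED200/ED500, i.e. those raising 5 h urine output to 200 or 500 versus undosed rats set at 100. Subcutaneous dosing preceded an oral 20 ml/kg saline load by 30 min; male Wistar rats, 7-8 weeks, deprived of water 1 h beforehand.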

Experiment [5] concerns the target T2, κ receptor (Mus musculus, UniProt P33534).
T2 construct: from tissue; host or cells: mouse (male ddy) vas deferens
The experiment is described as follows: Opioid activity test using an extracted mouse vas deferens preparation, Ke with norBNI. The arrangement: species or system male ddy mouse. To be noted: for receptor selectivity of agonist (κ): in words; for Ke, norBNI: κ, norBNI added.

The target of experiment [6] is T3, μ receptor (Mus musculus, UniProt P42866).
T3 construct: naloxone as mu antagonist (printed 'agonist')
The experiment in a line: Opioid activity test using an extracted mouse vas deferens preparation, Ke with naloxone. Details: species or system male ddy mouse. To be noted: naloxone added. The protocol:
A male ddy mouse was used in this test. The vas deferens extracted from the animal was suspended in a Magnus tube filled with Krebes-Henseleit solution (NaCl 118 mM; KCl 4.7 mM; CaCl2 2.5 mM; KH2 PO4 1.1 mM; NaHCO3 25 mM; Glucose 11 mM) warmed to 37° C. and ventilated with 5% carbon dioxide and 95% oxygen. Electrical stimulus was performed at 0.1 Hz for 5.0 ms by means of ring-shaped platinum electrodes located above and below. Tissue contractions were recorded on a polygraph using an isometric transducer.
After adequately washing with nutrient solution and the contraction reaction stabilized, the μ agonist, naloxone, the δ agonist, NTI, or the κ agonist, norBNI, was added after which the test compound was again cumulatively added after roughly 20 minutes. The Ke value was calculated using the following calculation formula from the difference in the efficacies of both agonists.
Ke=[Conc. of added agonist]/(IC50 ratio-1)
IC50 ratio=IC50 in the presence of agonist/IC50 in the absence of agonist

Setting [7] is: Mus musculus, sc, read-out: ED50.

T1 sequence (P32300 whole entry): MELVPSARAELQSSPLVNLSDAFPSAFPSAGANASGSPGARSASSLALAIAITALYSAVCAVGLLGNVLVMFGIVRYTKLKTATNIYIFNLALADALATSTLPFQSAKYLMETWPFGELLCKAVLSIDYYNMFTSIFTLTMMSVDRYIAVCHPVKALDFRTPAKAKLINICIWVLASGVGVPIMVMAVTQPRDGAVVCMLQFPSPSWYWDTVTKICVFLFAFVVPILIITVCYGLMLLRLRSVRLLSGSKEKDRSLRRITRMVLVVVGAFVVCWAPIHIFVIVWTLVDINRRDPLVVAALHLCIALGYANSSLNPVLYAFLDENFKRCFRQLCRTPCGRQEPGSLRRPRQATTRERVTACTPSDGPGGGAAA
T2 sequence (P33534 whole entry): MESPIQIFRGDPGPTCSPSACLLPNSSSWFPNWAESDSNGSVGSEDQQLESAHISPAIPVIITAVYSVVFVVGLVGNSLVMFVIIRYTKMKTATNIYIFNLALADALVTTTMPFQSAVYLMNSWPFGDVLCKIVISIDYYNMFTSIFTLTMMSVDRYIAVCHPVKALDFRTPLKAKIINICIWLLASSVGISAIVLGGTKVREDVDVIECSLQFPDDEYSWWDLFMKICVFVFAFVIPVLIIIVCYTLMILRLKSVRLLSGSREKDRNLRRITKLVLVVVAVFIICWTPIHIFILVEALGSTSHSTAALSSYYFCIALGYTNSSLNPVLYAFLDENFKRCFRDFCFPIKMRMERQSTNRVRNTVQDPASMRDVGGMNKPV
T3 sequence (P42866 whole entry): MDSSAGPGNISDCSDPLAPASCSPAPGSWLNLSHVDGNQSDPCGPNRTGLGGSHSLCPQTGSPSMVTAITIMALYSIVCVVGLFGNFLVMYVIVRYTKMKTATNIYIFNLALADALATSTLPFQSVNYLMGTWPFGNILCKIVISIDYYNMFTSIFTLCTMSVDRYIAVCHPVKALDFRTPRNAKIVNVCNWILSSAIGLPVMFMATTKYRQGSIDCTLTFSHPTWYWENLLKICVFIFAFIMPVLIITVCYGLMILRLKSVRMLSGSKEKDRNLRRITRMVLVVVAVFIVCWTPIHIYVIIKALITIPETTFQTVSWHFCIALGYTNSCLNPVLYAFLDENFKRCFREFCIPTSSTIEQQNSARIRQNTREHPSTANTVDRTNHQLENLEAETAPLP

Take `CN(C(=O)OCc1ccc([N+](=O)[O-])cc1)[C@H]1CC[C@@]2(O)[C@H]3Cc4ccc(O)c5c4[C@@]2(CCN3CC2CC2)[C@H]1O5` [Compound 43, 17-cyclopropylmethyl-3,14β-dihydroxy-4,5α-epoxy-6α-(N-methyl-4-nitrobenzyloxycarbamido)morphinan.cndot.hydrochloride]: the concentration for half-maximal inhibition (IC50) (as a rule, the concentration that inhibits the measured activity by half) in experiment [1] came out at 650 pM. Besides, the “Ke, NTI” value in experiment [2] came to 22.5 nM. For the same compound, the 50% effective dose (ED50) (as a rule, the dose at which the effect has come halfway, by size or by number of responders) in experiment [3] (setting [7]) was 5.5 µg/kg. Moreover, in experiment [4], the ED (200% urine output) was 0.54 µg/kg and the ED (500% urine output) was 4.4 µg/kg. Moreover, in experiment [4] (s.c., from ED200 values), the “Diuretic action (in words)” value was “extremely strong diuretic action”. Also, in experiment [5], the “receptor selectivity of agonist (κ)” value is on record as “selective agonists for κ receptors” and the “Ke, norBNI” value amounted to 5.31 nM. Besides, in experiment [6], the “Ke, Naloxone” value amounted to 409 nM.
`CN(C(=O)CSc1ccccc1)[C@H]1CC[C@@]2(O)[C@H]3Cc4ccc(O)c5c4[C@@]2(CCN3CC2CC2)[C@H]1O5` [Compound 45, 17-cyclopropylmethyl-4,5α-epoxy-3,14β-dihydroxy-6α-(N-methylthiophenoxyacetamido)morphinan.cndot.tartrate] had a half-inhibitory concentration (IC50) in experiment [1] of 185 pM. In addition, the “Ke, NTI” value in experiment [2] was found to be 135 nM. The compound also came in with a median effective dose (ED50) in experiment [3] of 3.8 µg/kg. In experiment [4], this compound had an ED (200% urine output) of 8.1 µg/kg and an ED (500% urine output) of 857 µg/kg. Further, in experiment [5], the “receptor selectivity of agonist (κ)” value was “selective agonists for κ receptors” and the “Ke, norBNI” value was found to be 0.416 nM. Moreover, the “Ke, Naloxone” value in experiment [6] was found to be 26.5 nM.
In experiment [1], `CCCCOC(=O)N(C)[C@H]1CC[C@@]2(O)[C@H]3Cc4ccc(O)c5c4[C@@]2(CCN3CC2CC2)[C@H]1O5` [Compound 47, 17-cyclopropylmethyl-4,5α-epoxy-3,14β-dihydroxy-6α-(N-methylbutyroxycarbamido)morphinan.cndot.tartrate] showed an IC50 of 439 pM. Besides, in experiment [2], the “Ke, NTI” value turned out to be 10.4 nM. Also, the ED50 in experiment [3] (setting [7]) was determined as 0.52 µg/kg. For the same compound, the analgesic activity result in experiment [3] is “particularly strong analgesic activity”. The same compound gave an ED (200% urine output) in experiment [4] of 1.6 µg/kg. Moreover, in experiment [5], the “receptor selectivity of agonist (κ)” value is listed as “selective agonists for κ receptors” and the “Ke, norBNI” value was 0.140 nM. Moreover, the “Ke, Naloxone” value in experiment [6] was determined as 63.5 nM.
The compound `CCCCOC(=O)N(C)[C@@H]1CC[C@@]2(O)[C@H]3Cc4ccc(O)c5c4[C@@]2(CCN3CC2CC2)[C@H]1O5` [Compound 59, 17-cyclopropylmethyl-3,14β-dihydroxy-4,5α-epoxy-6β-(N-methylbutyroxycarbamido)morphinan.cndot.tartrate] had an IC50 in experiment [1] of 1140 pM. Besides, the “Ke, NTI” value in experiment [2] is reported as 47.3 nM. Moreover, the 50% effective dose (ED50) in experiment [3] (setting [7]) was determined as 2.8 µg/kg. In experiment [4], this compound returned an ED (200% urine output) of 10.5 µg/kg and an ED (500% urine output) of 2360 µg/kg. Besides, in experiment [5], the “receptor selectivity of agonist (κ)” value is given as “selective agonists for κ receptors” and the “Ke, norBNI” value worked out at 0.151 nM. Besides, the “Ke, Naloxone” value in experiment [6] is 21.3 nM.
`COc1cccc(/C=C/C(=O)N(C)[C@@H]2CC[C@@]3(O)[C@H]4Cc5ccc(O)c6c5[C@@]3(CCN4CC3CC3)[C@H]2O6)c1` [Compound 63, 17-cyclopropylmethyl-3,14β-dihydroxy-4,5α-epoxy-6β-(N-methyl-3-methoxycinnamamido)morphinan.cndot.tartrate] displayed an IC50 in experiment [1] of 746 pM. Further, in experiment [2], the “Ke, NTI” value came out at 96.9 nM. In addition, the 50% effective dose (ED50) in experiment [3] (setting [7]) is 1.1 µg/kg. For the same compound, the analgesic activity result in experiment [3] is listed as “particularly strong analgesic activity”. Also, in experiment [4], the ED (200% urine output) was determined as 3.8 µg/kg and the ED (500% urine output) came out at 309 µg/kg. In addition, in experiment [5], the “receptor selectivity of agonist (κ)” value was “selective agonists for κ receptors” and the “Ke, norBNI” value amounted to 1.60 nM. The “Ke, Naloxone” value in experiment [6] stood at 60.9 nM.
